Test results as given in ChEMBL document CHEMBL6182943, “Identification of 4'-Thiouridine as an Orally Available Antiviral Agent Targeting Both RdRp and NiRAN Functions of SARS-CoV-2 Nsp12” (J Med Chem, 2025).
Active and inactive are the calls of the source. No cut-off for these calls is given here.

Key:
[1] = Selectivity index, ratio of CC50 for cytotoxicity against MDCK cells to EC50 for antiviral activity against Influenza B virus B/Lee/40 infected in MDCK cells assessed as reduction in virus-induced cytopathic effect; assay type: toxicity, cell-based; settings: dog, read-out: Ratio CC50/EC50
Influenza A virus = test: Antiviral activity against Influenza A virus A/Hong Kong/8/68 (H3N2) infected in MDCK cells assessed as reduction in virus-induced cytopathic effect incubated for 3 days in presence of TPCK-treated trypsin by MTT assay; assay type: functional, organism-based; settings: 72 h
Influenza B virus = test: Antiviral activity against Influenza B virus B/Lee/40 infected in MDCK cells assessed as reduction in virus-induced cytopathic effect incubated for 3 days in presence of TPCK-treated trypsin by MTT assay; assay type: functional, organism-based; settings: B/Lee/40, MDCK, 72 h
[2] = Selectivity index, ratio of CC50 for cytotoxicity against golden hamster BHK-21 cells to EC50 for antiviral activity against Dengue virus 2 infected in BHK-21 cells transfected with Renilla luciferase tagged viral subgenomic replicon; assay type: toxicity, cell-based; settings: read-out: Ratio CC50/EC50
[3] = Cytotoxicity against MDCK cells assessed as reduction in cell viability incubated for 3 days by MTT assay; assay type: toxicity, cell-based, Canis lupus familiaris; settings: dog, time 3 day
dengue virus type 2 = test: Antiviral activity against Dengue virus 2 infected in BHK-21 cells transfected with Renilla luciferase tagged viral subgenomic replicon incubated for 48 hrs by luciferase based assay; assay type: functional, organism-based; settings: BHK-21, 48 h
Influenza A virus (H1N1) = test: Antiviral activity against Influenza A virus A/Puerto Rico/8/34 (H1N1) infected in MDCK cells assessed as reduction in virus-induced cytopathic effect incubated for 3 days in presence of TPCK-treated trypsin by MTT assay; assay type: functional, organism-based; settings: 72 h
[4] = Selectivity index, ratio of CC50 for cytotoxicity against MDCK cells to EC50 for antiviral activity against Influenza A virus A/Puerto Rico/8/34 (H1N1) infected in MDCK cells assessed as reduction in virus-induced cytopathic effect; assay type: toxicity, cell-based; settings: dog, read-out: Ratio CC50/EC50
[5] = Cytotoxicity against golden hamster BHK-21 cells assessed as reduction in cell viability by MTT assay; assay type: toxicity, cell-based, Mesocricetus auratus
[6] = Selectivity index, ratio of CC50 for cytotoxicity against MDCK cells to EC50 for antiviral activity against Influenza A virus A/Hong Kong/8/68 (H3N2) infected in MDCK cells assessed as reduction in virus-induced cytopathic effect; assay type: toxicity, cell-based; settings: dog, read-out: Ratio CC50/EC50
SARS-CoV-2 [7] = test: Antiviral activity against SARS-CoV-2 infected in African green monkey Vero cells assessed as reduction in viral N protein level measured after 1 day by Western blot analysis; assay type: functional, organism-based; settings: Severe acute respiratory syndrome coronavirus 2, dose 0.1-10 µM
SARS-CoV-2 [8] = test: Antiviral activity against SARS-CoV-2 infected in African green monkey Vero cells assessed as reduction in viral RNA copy number at 0.1 to 10 uM measured after 1 day by qRT-PCR analysis; assay type: functional, organism-based; settings: Severe acute respiratory syndrome coronavirus 2, dose 0.1-10 µM
SARS-CoV-2 [9] = test: Antiviral activity against SARS-CoV-2 infected in African green monkey Vero cells assessed as reduction in viral N protein level at 1 to 10 uM measured after 1 day by Western blot analysis relative to control; assay type: functional, Severe acute respiratory syndrome coronavirus 2; set-up: scale not given: the % may be the effect or the level left; settings: dose 1-10 µM
SARS-CoV-2 [10] = test: (§1) Antiviral activity against SARS-CoV-2 Gamma (hCoV-19/Korea95637/KDCA/2021) infected in human Calu-3 cells assessed as reduction in number of spike-protein expressing cells pre-infected for 30 mins followed by compound addition and measured 48 hrs post-infection by DAPI staining based immunofluorescence analysis relative to control; assay type: functional, organism-based; settings: Severe acute respiratory syndrome coronavirus 2, Gamma (hCoV-19/Korea95637/KDCA/2021)
[11] = Cmax in male ICR mouse at 10 mg/kg, po measured after 24 hrs by LC-MS/MS analysis; assay type: ADME, organism-based; settings: in vivo
[12] = Cytotoxicity against rhesus monkey LLC-MK2 cells assessed as reduction in cell viability by MTT-based cell viability assay; assay type: toxicity, Macaca mulatta
SARS-CoV-2 [13] = test: Antiviral activity against SARS-CoV-2 infected in african green monkey Vero cells assessed as reduction in number of spike-protein expressing cells at 30 uM pre-infected for 30 mins followed by compound addition and measured 48 hrs post-infection by DAPI staining based immunofluorescence analysis relative to control; assay type: functional, Severe acute respiratory syndrome coronavirus 2; set-up: scale not given: the % may be the effect or the level left; settings: time 47.5 hrs
[14] = MRTlast in male ICR mouse at 5 mg/kg, iv measured after 24 hrs by LC-MS/MS analysis; assay type: ADME, organism-based; settings: in vivo
SARS-CoV-2 [15] = test: (§2) Antiviral activity against SARS-CoV-2 infected in hACE2 expressing female B6.Cg-Tg(K18-ACE2)2Prlmn/J mouse model assessed as reduction in body weight loss at 100 mg/kg, po preadministered twice daily for 4 days at 8 hrs interval with four hours before and after viral challenge and measured 14 days post viral challenge; assay type: functional, organism-based; settings: Severe acute respiratory syndrome coronavirus 2, time 14.0 day
[16] = AUCinfinity in male ICR mouse at 5 mg/kg, iv measured after 24 hrs by LC-MS/MS analysis; assay type: ADME, organism-based; settings: in vivo
SARS-CoV-2 [17] = test: Antiviral activity against SARS-CoV-2 infected in african green monkey Vero cells assessed as nuclear occupancy at 30 uM pre-infected for 30 mins followed by compound addition and measured 48 hrs post-infection by DAPI staining based immunofluorescence analysis relative to control; assay type: functional, Severe acute respiratory syndrome coronavirus 2; settings: time 47.5 hrs
SARS-CoV-2 [18] = test: as §1, with “Omicron (hCoV-19/Korea/KDCA447321/2021)” for “Gamma (hCoV-19/Korea95637/KDCA/2021)”; assay type: functional, organism-based; settings: Severe acute respiratory syndrome coronavirus 2, Omicron (hCoV-19/Korea/KDCA447321/2021)
SARS-CoV-2 [19] = test: as §2, with “9” for “14”; assay type: functional, organism-based; settings: Severe acute respiratory syndrome coronavirus 2, time 9.0 day
[20] = AUClast in male ICR mouse at 5 mg/kg, iv measured after 24 hrs by LC-MS/MS analysis; assay type: ADME, organism-based; settings: in vivo
[21] = Oral bioavailability in male ICR mouse at 10 mg/kg measured after 24 hrs by LC-MS/MS analysis; assay type: ADME, organism-based; settings: in vivo
SARS-CoV-2 [22] = test: as §1, with “Wuhan-like (hCoV-19/Korea/KCDC06/2020)” for “Gamma (hCoV-19/Korea95637/KDCA/2021)”; assay type: functional, organism-based; settings: Severe acute respiratory syndrome coronavirus 2, Wuhan-like (hCoV-19/Korea/KCDC06/2020)
[23] = MRTinfinity in male ICR mouse at 5 mg/kg, iv measured after 24 hrs by LC-MS/MS analysis; assay type: ADME, organism-based; settings: in vivo
[24] = Terminal half-life in male ICR mouse at 10 mg/kg, po measured after 24 hrs by LC-MS/MS analysis; assay type: ADME, organism-based; settings: in vivo, read-out: beta t1/2 (converted)
SARS-CoV-2 [25] = test: as §2, with “50” for “100”; assay type: functional, organism-based; settings: Severe acute respiratory syndrome coronavirus 2, time 14.0 day
[26] = Tmax in male ICR mouse at 10 mg/kg, po measured after 24 hrs by LC-MS/MS analysis; assay type: ADME, organism-based; settings: in vivo
[27] = MRTlast in male ICR mouse at 10 mg/kg, po measured after 24 hrs by LC-MS/MS analysis; assay type: ADME, organism-based; settings: in vivo
[28] = AUClast in male ICR mouse at 10 mg/kg, po measured after 24 hrs by LC-MS/MS analysis; assay type: ADME, organism-based; settings: in vivo
[29] = system: Middle East respiratory syndrome-related coronavirus; test: Antiviral activity against MERS-CoV KOR/KNIH/002_05_2015 infected in human Huh-7 cells assessed as inhibition of virus-induced cytopathic effect measured 2 to 7 days post infection by MTT-based cell viability assay; assay type: functional, organism-based; settings: KOR/KNIH/002_05_2015, Huh-7
[30] = Cytotoxicity against HEK293T cells assessed as reduction in cell viability measured after 48 hrs by MTT assay; assay type: toxicity, cell-based, HEK-293T; settings: human
[31] = Cytotoxicity against human Huh-7 cells assessed as reduction in cell viability by MTT-based cell viability assay; assay type: toxicity
SARS-CoV-2 [32] = test: Antiviral activity against SARS-CoV-2 infected in hACE2 expressing female B6.Cg-Tg(K18-ACE2)2Prlmn/J mouse model assessed as survival rate at 100 mg/kg, po preadministered twice daily for 4 days at 8 hrs interval with four hours before and after viral challenge and measured 14 days post viral challenge relative to control; assay type: functional; settings: Severe acute respiratory syndrome coronavirus 2, 336 h, time 14 day
Zaire ebolavirus = test: Antiviral activity against Zaire Ebola virus infected in HEK293T cells transfected with viral replication protein and Renilla luciferase pre-infected for 4 hrs followed by compound addition and measured after 48 hrs by Dual-luciferase reporter assay; assay type: functional, organism-based; settings: HEK-293T
[33] = Clearance in male ICR mouse at 5 mg/kg, iv measured after 24 hrs by LC-MS/MS analysis; assay type: ADME, organism-based; settings: in vivo
[34] = MRTinfinity in male ICR mouse at 10 mg/kg, po measured after 24 hrs by LC-MS/MS analysis; assay type: ADME, organism-based; settings: in vivo
[35] = Terminal half-life in male ICR mouse at 5 mg/kg, iv measured after 24 hrs by LC-MS/MS analysis; assay type: ADME, organism-based; settings: in vivo, read-out: beta t1/2 (converted)
[36] = Cytotoxicity against African green monkey Vero cells assessed as reduction in cell viability incubated for 48 hrs by MTT assay; assay type: toxicity, cell-based; settings: chlorocebus sabaeus
SARS-CoV-2 [37] = test: Antiviral activity against SARS-CoV-2 infected in african green monkey Vero cells assessed as reduction in number of spike-protein expressing cells pre-infected for 30 mins followed by compound addition and measured 48 hrs post-infection by DAPI staining based immunofluorescence analysis; assay type: functional, organism-based; settings: Severe acute respiratory syndrome coronavirus 2, Vero
[38] = Cytotoxicity against human Calu-3 cells assessed as reduction in cell viability incubated for 48 hrs by MTT assay; assay type: toxicity, cell-based
rhinovirus B14 = test: Antiviral activity against Human rhinovirus B14 infected in human H1-HeLa cells incubated for 72 hrs; assay type: functional, organism-based; settings: Rhinovirus B
[39] = Cytotoxicity against human H1-HeLa cells assessed as reduction in cell viability incubated for 72 hrs; assay type: toxicity, cell-based
SARS-CoV-2 [40] = test: as §1, with “Delta (hCoV-19/Korea/KDCA119861/2021)” for “Gamma (hCoV-19/Korea95637/KDCA/2021)”; assay type: functional, organism-based; settings: Severe acute respiratory syndrome coronavirus 2, Delta (hCoV-19/Korea/KDCA119861/2021)
[41] = AUCinfinity in male ICR mouse at 10 mg/kg, po measured after 24 hrs by LC-MS/MS analysis; assay type: ADME, organism-based; settings: in vivo
Human coronavirus NL63 = test: Antiviral activity against HCoV-NL63 infected in LLC-MK2 cells assessed as inhibition of virus-induced cytopathic effect measured 2 to 7 days post infection by MTT-based cell viability assay; assay type: functional, organism-based

Compound: NC(=O)c1ncn([C@@H]2O[C@H](CO)[C@@H](O)[C@H]2O)n1 [RIBAVIRIN]
- selectivity ratio [1]: > 6.39
- EC50 (Influenza A virus): 17.2 µM
- EC50 (Influenza B virus): 15.7 µM
- selectivity ratio [2]: > 28.8
- CC50 at 72 h [3]: > 100 µM
- EC50 (dengue virus type 2): 3.47 µM
- EC50 (Influenza A virus (H1N1)): 17.3 µM
- selectivity ratio [4]: > 5.77
- CC50 [5]: > 100 µM
- selectivity ratio [6]: > 5.82

Compound: O=c1ccn([C@@H]2S[C@H](CO)[C@@H](O)[C@H]2O)c(=O)[nH]1
- Activity (SARS-CoV-2 [7]): Dose-dependent-effect
- Activity (SARS-CoV-2 [8]): Active
- Activity (SARS-CoV-2 [9]): 100%
- EC50 (SARS-CoV-2 [10]): 3.48 µM
- Cmax [11]: 4980 ng/mL
- CC50 [12]: > 100 µM
- Activity (SARS-CoV-2 [13]): >80%
- MRT last at 24 h [14]: 7.16 h
- Activity (SARS-CoV-2 [15]): Active
- AUC(0-inf) [16]: 20500 ng·h/mL
- Activity (SARS-CoV-2 [17]): >80%
- EC50 (SARS-CoV-2 [18]): 2.66 µM
- Activity (SARS-CoV-2 [19]): Active
- AUC(0-t) at 24 h [20]: 17500 ng·h/mL
- bioavailability [21]: 109%
- EC50 (SARS-CoV-2 [22]): 4.08 µM
- EC50 (Influenza A virus): 15.3 µM
- EC50 (Influenza B virus): 20.4 µM
- MRT inf [23]: 11.4 h
- half-life [24]: 8.2 h
- Activity (SARS-CoV-2 [25]): inactive
- Tmax [26]: 1 h
- MRT last at 24 h [27]: 6.84 h
- CC50 at 72 h [3]: > 100 µM
- EC50 (dengue virus type 2): 42 µM
- EC50 (Influenza A virus (H1N1)): 13.4 µM
- AUC(0-t) at 24 h [28]: 38000 ng·h/mL
- EC50 [29]: 4.04 µM
- CC50 at 48 h [30]: 81.1 µM
- CC50 [31]: > 100 µM
- survival at 100 mg/kg (SARS-CoV-2 [32]): 40%
- EC50 (Zaire ebolavirus): 33 µM
- clearance [33]: 4.17 mL/min/kg
- MRT inf [34]: 10.5 h
- CC50 [5]: 93.7 µM
- half-life [35]: 8.87 h
- CC50 at 48 h [36]: > 100 µM
- EC50 (SARS-CoV-2 [37]): 1.71 µM
- CC50 at 48 h [38]: > 100 µM
- EC50 (rhinovirus B14): 23.7 µM
- CC50 at 72 h [39]: > 100 µM
- EC50 (SARS-CoV-2 [40]): 7.6 µM
- AUC(0-inf) [41]: 43600 ng·h/mL
- EC50 (Human coronavirus NL63): 4.53 µM
